# In US11717536B2, “Treatment for periodontitis” (THE UNIVERSITY OF MELBOURNE, priority 2017, dated 2023):
# “Also recorded” adds a separate entry of the source. Marks after values point to notes of the source that are not given here.
# Columns and labels:
# supragingival plaque [1] = experiment: Clinical trial: microbial composition of supragingival plaque (16S rRNA gene sequencing), whole community; type: in vivo, human
# From the text: Following the completion of the examination and supragingival plaque collection, participants received a supragingival scaling, clean and prophylaxis of all their teeth. At the completion of the last examination for leg 3, each participant received a professional fluoride treatment.
# Participants had all supragingival plaque collected from the buccal surfaces of their maxillary molars (teeth 17, 16, 26 & 27) with a sterile scaling instrument. The plaque samples from each tooth were placed in separate sterile tubes, to give four samples per participant.
# Genomic DNA was extracted from the plaque using a combination of mechanical disruption of the cells via a Precellys homogeniser and the chemical extraction and purification of the genomic DNA via the PowerLyzer PowerSoil DNA Isolation Kit (MoBio). Quantitation of the extracted DNA was achieved using a Qubit dsDNA High Sensitivity Assay kit (ThermoFisher), before 5 ng DNA was used as template in a PCR reaction that amplified the V4 variable region of the 16S ribosomal RNA gene and individually barcoded the PCR product from each sample. The barcoded DNA was then sequenced using an Ion Torrent Personal Genome machine and Torrent Suite™ Software (ThermoFisher).
# Analysis of the resulting sequence of the 16S ribosomal RNA gene enabled identification of the bacterial population present in each sample, down to the species level. […]
# The individual 16S rDNA sequences produced for each sample were used to both classify the microbial lineages present (grouped as species level taxa) and determine the abundances of each taxon. Differences in the bacterial community over time was determined by measuring the changes in the relative taxon abundances for each individual.
# supragingival plaque [2] = experiment: Clinical trial: plaque index (Turesky modification of the Quigley-Hein Index); type: in vivo, human; conditions: CPP-ACP gum (18.8 or 56.4 mg), 14 days, vs no gum chewing; FIG. 1
# Method: Following the completion of the examination and supragingival plaque collection, participants received a supragingival scaling, clean and prophylaxis of all their teeth. At the completion of the last examination for leg 3, each participant received a professional fluoride treatment. Supragingival plaque was assessed using the Turesky modification of the Quigley-Hein Index (Turesky et al 1970 J Periodontol 41(1):41-43). This index is recognised as a reliable estimate of the tooth area covered by plaque and is frequently used for evaluating anti-plaque agents. The plaque index was obtained by adding the scores for each tooth and dividing by the number of surfaces examined. Plaque scores associated with unrestored labial, buccal and lingual surfaces of all teeth, except third molars were assessed. Each surface was assigned a score from 0 to 5.
# [3] = test system: Streptococcus sanguinis (NCTC 7863); experiment: Six species polymicrobial biofilm in constant-depth film fermenter, species composition: S. sanguinis; type: cell-based
# Method: (§1) To model supragingival plaque six representative oral bacterial species, Streptococcus sanguinis (NCTC 7863), Streptococcus mutans Ingbritt, Actinomyces naeslundii (NCTC 10301), Veillonella parvula (ATCC 17745), Lactobacillus casei (NCDO 161) and Fusobacterium nucleatum (ATCC 10953) (Table 5) were cultured as a polymicrobial biofilm on a human enamel substratum in a constant-depth film fermenter (CDFF; Cardiff University, UK). The CDFF was housed in a 37° C. incubator under anaerobic conditions which were maintained by a constant flow of 5% CO2 in N2 at 1 L/h. The CDFF contained 15 removable polytetrafluoroethylene (PTFE) pans on a circular platform that was rotated at a constant speed of three rpm. The biofilms were grown on three enamel blocks (see below) in each PTFE pan using an artificial saliva medium (ASM, 2.5 g/L mucin type II (porcine, gastric, Sigma), 2.0 g/L bacteriological peptone (Oxoid), 2.0 g/L tryptone (Oxoid), 1.0 g/L yeast extract (Oxoid), 0.35 g/L NaCl, 0.2 g/L KCl, 0.2 mg/L vitamin K, 1 mg/L haemin and 0.1 g/L cysteine hydrochloride) at a constant flow rate of 30 mL/h. Prior to inoculation, the CDFF pan surfaces were conditioned for 24 h with ASM at a flow rate of 10 mL/h (McBain et al (2003) J Appl Microbiol. 94(4):655-66). In order to mimic in vivo bacterial growth conditions in the oral cavity with dietary sugar intake and to provide a high cariogenic challenge, a 1% (w/v) sucrose solution in ASM was pumped into the CDFF four times a day at four hourly intervals with a flow rate of 30 mL/h for 10 min.
# Three treatments were applied to the polymicrobial biofilms: 290 ppm fluoride with 220 ppm fluoride as SnF2 and 70 ppm fluoride as NaF (referred to as SnF2), 2% CPP-ACP and 2% CPP-ACP-SnF2. These treatments were compared with the control in which the test solution was replaced with ASM. Each treatment was applied using two 10 min pulses of the test solution in ASM with a flow rate of 30 mL/h. The first pulse started 30 min prior to the first sucrose pulse of the morning and the second started 3 h 30 min after the final sucrose pulse of the day.
# On day 6, 12 and 19 after inoculation four pans were removed aseptically from the CDFF and replaced with blank sterile pans. Enamel blocks from the pans were removed for bacterial enumeration and transverse microradiography.
# Planktonic and loosely attached bacterial cells were firstly removed from the enamel blocks by light washing with 100 μL ASM. […]
# (§2) For each timepoint, DNA was extracted separately from 8-9 enamel blocks using PowerLyzer® PowerSoil® DNA Isolation Kits (MoBio Laboratories) following the manufacturers “Vacuum Protocol” with a Precellys® bead homogeniser (Bertin Technologies). Samples were quantified using a Qubit™ dsDNA HS assay kit (Life Technologies) before being stored at −80° C. […]
# [4] = test system: Veillonella parvula (ATCC 17745); experiment: Six species polymicrobial biofilm in constant-depth film fermenter, species composition: V. parvula; type: cell-based
# Method: as §1
# Three treatments were applied to the polymicrobial biofilms: 290 ppm fluoride with 220 ppm fluoride as SnF2 and 70 ppm fluoride as NaF (referred to as SnF2), 2% CPP-ACP and 2% CPP-ACP-SnF2. […]
# as §2
# [5] = 19 days, mean ± standard deviation, n = 5-21
substance,measurement,setting,value
Casein phosphopeptide-amorphous calcium phosphate [CPP-ACP],increases in commensal/beneficial species at the 56.4 mg dose compared with the 18.8 mg dose,"supragingival plaque [1]; 56.4 mg CPP-ACP gum, 20 min six times per day, 14 days",significantly greater
same,proportion of pathogenic species (pathobionts),"supragingival plaque [1]; CPP-ACP gum, 14 days, vs no treatment",concomitant reduction
same,proportion of the health-associated symbionts,"supragingival plaque [1]; CPP-ACP treatment, randomised controlled clinical study",significant increase
same,plaque index,supragingival plaque [2],did not produce a significant change
same,S. sanguinis as a percentage of total bacteria in the biofilm,[3]; [5],19.85 ± 2.86^bc %
same,change in abundance of S. sanguinis relative to the control (in words),"[3]; twice daily treatment, day 19",significantly increased; also recorded: reproducible increases
same,V. parvula as a percentage of total bacteria in the biofilm,[4]; [5],6.71 ± 0.89^c %
same,change in abundance of V. parvula relative to the control (in words),"[4]; twice daily treatment, day 19",remained relatively constant
